Data reported in patent publication US20210139435A1, “PROSTAGLANDIN ANALOGS AND USES THEREOF” (Lifex Biolabs, Inc., priority 2019, published 2021).

molecular target: Nurr1 (Homo sapiens, UniProt P43354); experiment: Activation of Nurr1 / Nurr1's transcription function by prostaglandins (stated without method); assay type: cell-based; conditions: not given
Sequence (P43354 whole entry, species assumed): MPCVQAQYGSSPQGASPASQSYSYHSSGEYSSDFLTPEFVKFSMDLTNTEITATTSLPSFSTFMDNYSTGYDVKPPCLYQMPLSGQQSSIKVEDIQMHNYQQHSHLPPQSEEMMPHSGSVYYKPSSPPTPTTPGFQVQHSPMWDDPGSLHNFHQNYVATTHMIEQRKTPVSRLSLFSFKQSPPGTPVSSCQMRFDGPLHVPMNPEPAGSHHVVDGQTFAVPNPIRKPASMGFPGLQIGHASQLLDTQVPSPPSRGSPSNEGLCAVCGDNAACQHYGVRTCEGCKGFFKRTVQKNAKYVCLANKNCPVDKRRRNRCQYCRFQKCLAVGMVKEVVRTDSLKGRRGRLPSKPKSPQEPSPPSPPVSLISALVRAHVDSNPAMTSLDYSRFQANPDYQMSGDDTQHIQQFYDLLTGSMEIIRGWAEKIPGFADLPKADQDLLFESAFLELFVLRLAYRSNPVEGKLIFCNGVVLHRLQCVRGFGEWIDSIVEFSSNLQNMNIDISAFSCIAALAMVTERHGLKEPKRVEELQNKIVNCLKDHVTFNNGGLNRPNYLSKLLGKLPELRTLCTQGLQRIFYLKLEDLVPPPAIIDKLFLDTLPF

Nurr1's transcription function | SMILES
enhanced | CCCCC(C)(O)C/C=C/[C@H]1[C@H](O)CC(=O)[C@@H]1CCCCCCC(=O)OC (stereo partly drawn) [misoprostol, Misoprostol]

molecular target: T1, mouse Nurr1 full-length (Mus musculus, UniProt Q06219); experiment: Luciferase reporter gene assay for Nurr1 transcriptional activity in SK-N-BE2C cells; assay type: cell-based; conditions: relative activity over control (luminescence value; 1.0)
T1 construct: pcDNA3.1 Myc/His mouse Nurr1 full-length construct; expressed in transfected cells; host or cells: SK-N-BE2C
T1 sequence (Q06219 whole entry): as the sequence (P43354 whole entry, species assumed) above, with T131S, G134S, E354D counted along it
Protocol: To investigate whether the PG analogs of the present invention activate Nurr1 function, the inventors of the present invention employed an reporter gene assay and examined the transcriptional activation as described in Kim, C.-H. et al., Proceedings of the National Academy of Sciences 112, 8756-8761, doi:10.1073/pnas.1509742112 (2015).
The gene assay was performed by Luciferase assay as described below:
[Protocol for Luciferase Assay to Determine Nurr1 Transcriptional Activity] • 1. SK-N-BE2C cells were maintained in HyClone™ DMEM High Glucose (Cat. No.: SH30022.01) with 10% (v/v) fetal bovine serum (FBS), 100 units/ml penicillin and 100 μg/ml streptomycin. • 2. Seed 1.5×10^5 SK-N-BE2C cells/well into a 24-well plate and incubate at 37° C. with 5% CO2 for 24 hours. • 3. After 24 hours, transfect cells with pcDNA3.1 Myc/His mouse Nurr1 full-length construct, firefly luciferase reporter vector (pGL-3 basic from Promega, Cat. No.:E1751; with appropriate response element cloned in) and Renilla luciferase control vector (pRL-null from Promega, Cat. No.:E2271) in the ratio of 8:1:1 (Nurr1: firefly: renilla) or 400 ng, 50 ng and 50 ng respectively, amounting to a total of 500 ng in the 50 μl transfection mix for 1 well. • 4. To make the transfection mix, first prepare the DNA with P3000 reagent by adding the appropriate amount of DNA with 1 μl P3000 reagent and top up with Opti-MEM® I Reduced-Serum Media (from ThermoFisher Scientific [Cat. No.: 31985070]) to 25 μl. Incubate for 5 minutes at room temperature. • 5. Make another mix consisting of 1 μl Lipofectamine 3000 reagent with 24 μl Opti-MEM® I Reduced-Serum Media per well. Add this Lipofectamine mix to the previous DNA-P3000 mix (after the previous 5 minute incubation) and incubate them for 15 minutes at room temperature. [P3000:Lipofectamine=1:1]. • 6. In the meantime, change the media in the sample wells with fresh DMEM media without antibiotics. • 7. After 15 minutes incubation, add the 50 μl transfection mix into each well and incubate the plate for 24 hours at 37° C. with 5% CO2. • 8. After 24 hours, change the media to normal DMEM media with antibiotics and add various doses of compounds into designated wells and incubate the plate for another 24 hours at 37° C. with 5% CO2. • 9. Following the 24-hour incubation period, luciferase assay can be conducted using Dual-Glo Luciferase® kit from Promega (Cat. No.: E2920). • 10. Lyse each tested wells for 15 minutes with 75 μl of passive lysis buffer provided in the Dual-Luciferase® kit from Promega (Cat. No.: E1910). [Alternatively, add 75 μl of PBS and 75 μl of Dual-Glo® Luciferase Reagent and incubate for 10 minutes at room temperature (cover the plate with foil to protect from light). Transfer the entire sample in each well to a Greiner CELLSTAR® 96-well white polystyrene plate then proceed to step 13]. • 11. After 15 minutes, transfer each lysed sample to a Greiner CELLSTAR® 96-well white polystyrene plate (Cat. No.:655083). • 12. To each well of lysed cells, add 75 μl of Dual-Glo® Luciferase Reagent and incubate for 10 minutes at room temperature (cover the plate with foil to protect from light). • 13. Set the measurement with a 10-second integrated measurement period. • 14. Add 75 μl of Dual-Glo® Stop & Glo® reagent into each well and incubate for 10 minutes before commencing with the same parameters as before to determine the RLU for the Renilla luciferase. • 15. The averaged reading for wells corresponding to non-transfected cells can be subtracted from each RLU reading and duplicate/triplicate readings can then be averaged. Normalization of the luminescence reading for each well can be carried out by dividing the firefly luciferase RLU with the corresponding Renilla luciferase RLU. Each drug-treated well can then be normalized against the averaged DMSO-treated well reading.

SMILES | Fold activity (1 uM)
CCCCC[C@H](O)/C=C/[C@H]1[C@H](O)CC(=O)[C@@H]1CCCCCCCCC(=O)O [Compound 34, 1a,1b-dihomo Prostaglandin E1] | B (1.1~2.0 (moderate))
CCCCC[C@](C)(O)/C=C/[C@H]1[C@H](O)CC(=O)[C@@H]1C/C=C\CCCC(=O)O [Compound 61, 15(S)-15-methyl Prostaglandin E2] | A (above 2.0 (high activity))
CCCCC[C@H](O)/C=C/[C@H]1C(=O)C[C@H](O)[C@@H]1C/C=C\CCCC(=O)NC(CO)CO [Compound 32, Prostaglandin D2 serinol amide] | C (below 1.0 (low activity))
CCCCC[C@H](O)/C=C/[C@H]1[C@@H](O)CC(=O)[C@@H]1CCCCCCC(=O)O [Compound 85, 11b-Prostaglandin E1] | C (below 1.0 (low activity))
CCCCC[C@H](O)/C=C/[C@H]1[C@H](O)CC(=O)[C@@H]1CC(=O)CCCCC(=O)O [Compound 42, 6-keto Prostaglandin E1] | A (above 2.0 (high activity))
CCCCC[C@H](O)/C=C/[C@H]1C(=O)C[C@H](O)[C@@H]1C/C=C\CCCC(=O)NCCO [Compound 72, Prostaglandin D2 Ethanolamide] | C (below 1.0 (low activity))
O=C(O)CCCCCC[C@H]1C(=O)C[C@@H](O)[C@@H]1/C=C/[C@@H](O)Cc1ccccc1 [Compound 59, 16-phenyl tetranor Prostaglandin E1] | B (1.1~2.0 (moderate))
CCCCC[C@@](C)(O)/C=C/[C@H]1[C@H](O)CC(=O)[C@@H]1C/C=C\CCCC(=O)O [Compound 53, 15(R)-15-methyl Prostaglandin E2] | B (1.1~2.0 (moderate))
CCCCC[C@H](O)/C=C/[C@H]1[C@H](O)CC(=O)[C@@H]1CCCCCCC(=O)O [Compound 73, Prostaglandin E1] | A (above 2.0 (high activity))
CCCCC[C@H](O)/C=C/[C@H]1[C@H](O)CC(=O)[C@@H]1C/C=C\CCCC(=O)NCCO [Compound 36, Prostaglandin E2 Ethanolamide] | B (1.1~2.0 (moderate))
CCCCC[C@H](O)/C=C/[C@H]1C(=O)C[C@H](O)[C@@H]1C/C=C\CCCC(=O)O [Compound 64, Prostaglandin D2] | B (1.1~2.0 (moderate))
CCCC[C@H](C)C[C@H](O)/C=C/[C@H]1[C@H](O)CC(=O)[C@@H]1CCCCC(CC(=O)O)OC (stereo partly drawn) [Compound 63, 3-methoxy Limaprost] | B (1.1~2.0 (moderate))
CCCCC[C@H](O)/C=C/[C@H]1[C@H](O)CC(=O)[C@@H]1C/C=C/CCCC(=O)Oc1ccc(NC(C)=O)cc1 [Compound 44, Prostaglandin E2 p-acetamidophenyl ester] | A (above 2.0 (high activity))
CCCCC[C@H](O)/C=C/[C@@H]1[C@@H](C/C=C\CCCC(=O)O)[C@@H](O)C[C@H]1O.NC(CO)(CO)CO [Compound 92, DinoprostTromethanol] | B (1.1~2.0 (moderate))
O=C(O)CCC/C=C\CC1C(O)CC(=O)C1/C=C/C(O)CCc1ccccc1 (stereo not drawn) [Compound 65, 17-phenyl trinor Prostaglandin D2] | C (below 1.0 (low activity))
O=C(CCC/C=C\C[C@@H]1[C@@H](CC[C@@H](O)CCc2ccccc2)[C@H](O)C[C@@H]1O)OCCCCO[N+](=O)[O-] [Compound 95, Latanoprostene bunod] | C (below 1.0 (low activity))
CCCCCC(=O)/C=C/[C@H]1[C@H](O)CC(=O)[C@@H]1CCCCCCC(=O)O [Compound 19, 15-keto Prostaglandin E1] | B (1.1~2.0 (moderate))
CCCCC[C@@](C)(O)/C=C/[C@H]1C(=O)C[C@H](O)[C@@H]1C/C=C\CCCC(=O)O [Compound 49, 15(R)-15-methyl Prostaglandin D2] | C (below 1.0 (low activity))
CC/C=C\C[C@H](O)/C=C/[C@H]1[C@H](O)CC(=O)[C@@H]1C/C=C\CCCC(=O)O [Compound 70, Prostaglandin E3] | A (above 2.0 (high activity))

Further lines, results first:

Fold activity (1 uM) | SMILES
C (below 1.0 (low activity)) | CCCCC[C@](C)(O)/C=C/[C@@H]1[C@@H](C/C=C\CCCC(=O)O)[C@@H](O)C[C@H]1O [Compound 86, Carboprost]
B (1.1~2.0 (moderate)) | CCCCC[C@](C)(O)/C=C/[C@H]1C(=O)C[C@H](O)[C@@H]1C/C=C\CCCC(=O)O [Compound 57, 15(S)-15-methyl Prostaglandin D2]
A (above 2.0 (high activity)) | CCCCC(C)(C)[C@H](O)/C=C/[C@H]1[C@H](O)CC(=O)[C@@H]1C/C=C\CCCC(=O)O [Compound 69, 16,16-dimethyl Prostaglandin E2]
B (1.1~2.0 (moderate)) | CCCCC[C@@H](O)/C=C/[C@H]1[C@H](C/C=C\CCCC(=O)O)C(=O)C[C@@H]1O [Compound 47, ent-Prostaglandin E2]
A (above 2.0 (high activity)) | CCCCC[C@](C)(O)/C=C/[C@H]1[C@H](O)CC(=O)[C@@H]1CCCCCCC(=O)O [Compound 27, 15(S)-15-methyl Prostaglandin E1]
C (below 1.0 (low activity)) | CCCCC[C@H](O)/C=C/[C@H]1[C@H](O)CC(=O)[C@@H]1CCCCC(=O)O [Compound 93, 2,3-DINOR PGE1]
A (above 2.0 (high activity)) | CCCCC[C@H](O)/C=C/[C@H]1[C@H](O)CC(=O)[C@@H]1CCCCCCC(=O)Oc1ccc(NC(=O)c2cc(F)cc(F)c2)cc1 [Compound 13, 4-(3,5-difluorobenzamido)phenyl 7-((1R,2R,3R)-3-hydroxy-2-((S,E)-3-hydroxyoct-1-enyl)-5-oxocyclopentyl)heptanoate]
B (1.1~2.0 (moderate)) | CS(=O)(=O)NC(=O)CCC/C=C\C[C@H]1C(=O)C[C@@H](O)[C@@H]1/C=C/[C@@H](O)COc1ccccc1 [Compound 22, Sulprostone]
B (1.1~2.0 (moderate)) | CCCCC(C)(C)[C@H](O)/C=C/[C@H]1[C@H](O)CC(=O)[C@@H]1CC(=O)CCCCC(=O)O [Compound 84, 16,16-dimethyl-6-keto Prostaglandin E1]
B (1.1~2.0 (moderate)) | CCCCC[C@H](O)/C=C/[C@H]1[C@H](O)CC(=O)[C@@H]1CCCCCCC(=O)NCCO [Compound 88, Alprostadil Ethanolamide]
A (above 2.0 (high activity)) | CCCCC[C@H](O)/C=C/[C@H]1[C@H](O)CC(=O)[C@@H]1CCCCCCC(=O)Oc1ccc(NC(=O)c2ccccc2)cc1 [Compound 1, 4-Benzamidophenyl-7-((1R,2R,3R)-3-hydroxy-2-((S,E)-3-hydroxyoct-1-enyl)-5-oxocyclopentyl)heptanoate]
A (above 2.0 (high activity)) | O=C(O)CCC/C=C\C[C@H]1C(=O)C[C@@H](O)[C@@H]1/C=C/[C@@H](O)Cc1ccccc1 [Compound 30, 16-phenyl tetranor Prostaglandin E2]
A (above 2.0 (high activity)) | O=C(O)CCCCCCC1C(=O)NC(=O)N1CCC(O)C1CCCCC1 (stereo not drawn) [Compound 90, BW245C]
